In brackets after ≈: the same amount, converted by molar mass. Read-outs that look alike come from different tables or passages of the source. Marks after values point to notes of the source that are not given here.
Tests used:
NDM-1 [1] = biological target: T1, NDM-1 (Klebsiella pneumoniae, UniProt C7C422); assay: biochemical; assay type: biochemical; conditions: for inhibition of nitrocefin turnover: at the concentrations tested, up to 320 μM
Target sequence in this assay (C7C422 29-270, looked up): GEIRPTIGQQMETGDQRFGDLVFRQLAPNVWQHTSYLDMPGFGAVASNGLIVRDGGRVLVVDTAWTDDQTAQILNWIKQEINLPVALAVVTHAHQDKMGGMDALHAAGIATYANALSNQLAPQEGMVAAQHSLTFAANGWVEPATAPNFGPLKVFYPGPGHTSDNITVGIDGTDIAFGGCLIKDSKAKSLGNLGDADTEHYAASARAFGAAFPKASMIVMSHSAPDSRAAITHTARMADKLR

CoCo-NDM-1 = CoCo-NDM-1 (Klebsiella pneumoniae, UniProt C7C422); assay type: binding; conditions: 300 μM CoCo-NDM-1, one or two equivalents of compound
Chain of CoCo-NDM-1 (C7C422 29-270, looked up): as above

[2] = system: E. coli MG1655 expressing NDM-1; assay: microbe, parasite or virus in culture; assay type: cell-based; conditions: for MIC: Escherichia coli; for MG1655 MIC: compound alone, 20 h, Mueller-Hinton broth
NDM-1 [3] = biological target: T1, NDM-1; assay type: cell-based, E. coli; conditions: for reduction of nitrocefin turnover: 100 μM, treated for 60 minutes at room temperature
Target sequence in this assay (C7C422 37-270 limits assumed): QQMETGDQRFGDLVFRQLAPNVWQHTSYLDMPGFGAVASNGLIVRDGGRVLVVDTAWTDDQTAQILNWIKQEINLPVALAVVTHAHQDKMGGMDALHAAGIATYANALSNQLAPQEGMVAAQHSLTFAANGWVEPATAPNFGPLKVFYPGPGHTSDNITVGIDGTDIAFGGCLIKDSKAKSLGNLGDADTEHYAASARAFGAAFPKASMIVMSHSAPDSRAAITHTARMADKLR

[4] = system: E. coli MG1655 expressing NDM-1; assay type: cell-based
[5] = system: E. coli MG1655 expressing CTX-M-1; assay type: cell-based
NDM-1 [6] = biological target: T1, NDM-1; assay type: binding; conditions: 10 μM NDM-1, after dialysis
Target sequence in this assay (C7C422 29-270, looked up): as the sequence (C7C422 29-270, looked up) above

NDM-1 [7] = biological target: T1, NDM-1; assay: Turnover of PcephPT by purified NDM-1; assay type: biochemical; conditions: 5 nM NDM-1, concentrations up to 160 μM, HEPES pH 7.2, 37 °C
Target sequence in this assay (C7C422 29-270, looked up): as above

[8] = system: E. coli UTI89 expressing NDM-1; assay: microbe, parasite or virus in culture; assay type: cell-based; conditions: for MIC: Escherichia coli; for UTI89 MIC: compound alone, Mueller-Hinton broth
NDM-1 [9] = biological target: T1, NDM-1; assay type: biochemical; conditions: 0–60 μM inhibitor; for change of Vmax with increasing inhibitor concentration: 10 nM NDM-1, Figure S5; for inhibition mode: 10 nM NDM-1, nitrocefin 63–500 μM
Target sequence in this assay (C7C422 29-270, looked up): as above

susceptible strains = conditions: no reference given; cited from earlier work
[10] = MG1655, 20 h, read-out: MG1655 MIC
[11] = OD600 every 30 minutes over 20 h

CC(=O)OCC1=C(C(=O)O)N2C(=O)[C@@H](NC(=O)Cc3cccs3)[C@H]2SC1 [Cephalothin]
IC50 (NDM-1 [1]): 9.1 µM

c1ccc(CN(CCN(Cc2ccccn2)Cc2ccccn2)Cc2ccccn2)nc1 [TPEN, N,N,N′,N′-tetrakis(2-pyridinylmethyl)-1,2-ethanediamine]
IC50 (NDM-1 [1]): 0.088 µM

C[C@@H](O)[C@H]1C(=O)N2C(C(=O)O)=C(SCCN=CN)C[C@H]12 [Imipenem]
IC50 (NDM-1 [1]): > 100 µM
inhibition of nitrocefin turnover (NDM-1 [1]): did not inhibit nitrocefin turnover

O=C(Cc1ccccc1)N[C@@H]1C(=O)N2C(C(=O)O)=C(CSc3cccc[n+]3[O-])CS[C@H]12 [PcephPT, 2-((((6R,7R)-2-carboxy-8-oxo-7-(2-phenylacetamido)-5-thia-1-azabicyclo[4.2.0]oct-2-en-3-yl)methyl)thio)pyridine 1-oxide]
change of CoCo-NDM-1 UV-Vis spectrum (CoCo-NDM-1): increase in absorbance in the 500–650 nm region
MIC [2, 10]: > 160 µM
MG1655 MIC [2]: >160 ^* μM
reduction of nitrocefin turnover (NDM-1 [3]): more than 75%
inhibition of nitrocefin turnover (NDM-1 [3]; cells exposed for only 30 minutes, compared with 60 minutes): less inhibited
effect of addition of copper on growth pattern ([4]; Figure S3): no significant difference
time of onset of growth inhibition ([4]; at concentrations of 40 μM and higher): between five and eight hours
concentration giving delayed onset of growth inhibition ([4]; growth initially in all conditions): ≥ 40 µM
growth pattern ([5]; varying concentrations, compared with PT): identical to that caused by PT
zinc removed from NDM-1 (NDM-1 [6]; 40 μM (four equivalents)): did not lead to loss of zinc
zinc removed from NDM-1 (NDM-1 [6]; 160 μM (sixteen equivalents)): did not lead to loss of zinc
effect of increasing incubation time with NDM-1 on IC50 (NDM-1 [1]; Figure S2): did not affect its IC50
turnover of compound by NDM-1 (NDM-1 [7]): turned over by 5 nM NDM-1 efficiently
MIC ([8]; 20 h, read-out: UTI89 MIC): > 160 µM
UTI89 MIC ([8]; 20 h): >160 ^* μM
change of Vmax with increasing inhibitor concentration (NDM-1 [9]): clear decrease in Vmax
inhibition mode (NDM-1 [9]): not competitive

O=C(O)c1cccc(C(=O)O)n1 [DPA, dipicolinic acid]
IC50 (NDM-1 [1]): 1.8 µM

CC1=C(C(=O)O)N2C(=O)[C@@H](NC(=O)[C@H](N)c3ccccc3)[C@H]2SC1 [Cephalexin]
IC50 (NDM-1 [1]): 36 µM

C[C@@H](O)[C@H]1C(=O)N2C(C(=O)O)=C(S[C@@H]3CN[C@H](C(=O)N(C)C)C3)[C@H](C)[C@H]12 [Meropenem]
MIC [2, 10]: > 160 µM
MIC ([2]; MG1655, read-out: MG1655 MIC of meropenem): 10 µM
MG1655 MIC [2]: >160 µM
MG1655 MIC of meropenem ([2]; with fixed 10 μM PT): not restored
MG1655 MIC of meropenem ([2]; with fixed 10 μM PcephPT): not restored
MIC (susceptible strains): lower than 10 μM
IC50 (NDM-1 [1]): > 100 µM
inhibition of nitrocefin turnover (NDM-1 [1]): did not inhibit nitrocefin turnover
MIC ([8]; 20 h, read-out: UTI89 MIC): > 160 µM
MIC ([8]; read-out: UTI89 MIC of meropenem): 10 µM
UTI89 MIC ([8]; 20 h): >160 µM
UTI89 MIC of meropenem ([8]; with fixed 10 μM PT): not restored
UTI89 MIC of meropenem ([8]; with fixed 10 μM PcephPT): not restored

CO/N=C(\C(=O)N[C@@H]1C(=O)N2C(C(=O)O)=C(CSc3nc(=O)c(=O)[nH]n3C)CS[C@H]12)c1csc(N)n1 [Ceftriaxone]
IC50 (NDM-1 [1]): 16 µM

[O-][n+]1ccccc1S [PT, pyrithione]
change of CoCo-NDM-1 UV-Vis spectrum (CoCo-NDM-1): increase in absorbance in the 500–650 nm region
MIC [2, 10]: 20 µM (≈ 2.54 µg/mL)
reduction of nitrocefin turnover (NDM-1 [3]): more than 75%
concentration that fully inhibits growth [4, 11]: ≥ 20 µM
growth pattern ([4]; at 10 μM): delayed growth
concentration that fully inhibits growth [5, 11]: ≥ 20 µM
growth pattern ([5]; at 10 μM): delayed growth
zinc removed from NDM-1 (NDM-1 [6]; 40 μM (four equivalents)): did not lead to loss of zinc
zinc removed from NDM-1 (NDM-1 [6]; 160 μM (sixteen equivalents)): did not lead to loss of zinc
IC50 (NDM-1 [1]): 17 µM
MIC ([8]; 20 h, read-out: UTI89 MIC): 40 µM (≈ 5.09 µg/mL)
change of Vmax with increasing inhibitor concentration (NDM-1 [9]): clear decrease in Vmax
inhibition mode (NDM-1 [9]): not competitive
